The text below walks through data of ChEMBL document CHEMBL2074388 (Am J Physiol Renal Physiol, 2001).

The target of data set [1] is T1, Solute carrier family 22 member 2 (Rattus norvegicus, UniProt Q9R0W2).
T1 sequence (Q9R0W2 whole entry): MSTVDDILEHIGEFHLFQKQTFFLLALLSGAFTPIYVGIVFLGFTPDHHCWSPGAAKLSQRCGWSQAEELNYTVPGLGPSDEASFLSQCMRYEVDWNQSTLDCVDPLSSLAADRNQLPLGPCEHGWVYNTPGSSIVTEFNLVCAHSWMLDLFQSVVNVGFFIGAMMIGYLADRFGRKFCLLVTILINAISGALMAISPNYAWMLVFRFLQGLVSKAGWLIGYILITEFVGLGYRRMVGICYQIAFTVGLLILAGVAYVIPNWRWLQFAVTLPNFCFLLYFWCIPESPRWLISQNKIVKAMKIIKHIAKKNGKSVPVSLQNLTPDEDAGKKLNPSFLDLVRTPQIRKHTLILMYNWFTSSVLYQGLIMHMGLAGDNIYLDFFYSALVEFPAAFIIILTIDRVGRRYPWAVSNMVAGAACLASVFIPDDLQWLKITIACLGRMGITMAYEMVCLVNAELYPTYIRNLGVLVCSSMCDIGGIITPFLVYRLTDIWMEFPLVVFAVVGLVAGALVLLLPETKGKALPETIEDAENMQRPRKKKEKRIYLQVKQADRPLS
Type of data set: functional, cell-based, Xenopus laevis, Oocyte.

The target of data set [2] is T2, Solute carrier family 22 member 1 (Rattus norvegicus, UniProt Q63089).
T2 sequence (Q63089 whole entry): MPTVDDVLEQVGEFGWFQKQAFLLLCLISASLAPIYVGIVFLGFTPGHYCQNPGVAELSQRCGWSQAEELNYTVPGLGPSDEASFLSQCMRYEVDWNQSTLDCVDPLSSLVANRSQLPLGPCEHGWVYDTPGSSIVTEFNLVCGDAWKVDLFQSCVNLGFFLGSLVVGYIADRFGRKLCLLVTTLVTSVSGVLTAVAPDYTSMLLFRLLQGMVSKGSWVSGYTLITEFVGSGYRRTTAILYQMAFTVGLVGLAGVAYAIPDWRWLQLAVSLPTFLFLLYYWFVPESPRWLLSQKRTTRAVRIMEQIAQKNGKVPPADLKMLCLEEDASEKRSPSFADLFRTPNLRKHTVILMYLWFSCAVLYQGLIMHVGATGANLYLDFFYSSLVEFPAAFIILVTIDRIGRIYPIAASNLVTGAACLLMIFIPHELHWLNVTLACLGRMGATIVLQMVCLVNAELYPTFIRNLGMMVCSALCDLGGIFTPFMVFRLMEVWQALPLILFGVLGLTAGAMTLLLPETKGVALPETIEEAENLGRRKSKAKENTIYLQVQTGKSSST
The data set is classed as functional, cell-based, Xenopus laevis, Oocyte.

Data set [3] concerns the target T1, Solute carrier family 22 member 2. Briefly: TP_TRANSPORTER: inhibition of TEA uptake in Xenopus laevis oocytes. Type of data set: functional, cell-based, Oocyte.
The target is the same in data set [4]. Briefly: TP_TRANSPORTER: inhibition of TEA uptake (electrogenicity) in Xenopus laevis oocytes.
Substrate in data set [5]: CNC(=O)c1cccnc1
Briefly: (§1) TP_TRANSPORTER: uptake in Xenopus laevis oocytes. Type of data set: functional, cell-based, Oocyte.

Substrate in data set [6]: C[n+]1ccc(-c2ccccc2)cc1
The data set is described as §1. Type of data set: functional, cell-based, Oocyte.

Substrate in data set [7]: N=C(N)N
The data set is described as §1. Type of data set: functional, cell-based, Oocyte.

Substrate in data set [8]: CC[N+](CC)(CC)CC
Briefly: cells, lysate or membranes named.

Substrate in data set [9]: C[N+](C)(C)CCO
Nature of the data set: cells, lysate or membranes named.

Substrate in data set [10]: NCCc1c[nH]cn1
Nature of the data set: cells, lysate or membranes named.

`O=C(O)CCC(=O)C(=O)O` [ALPHA-KETOGLUTARIC ACID]: the IC50 – broadly, the concentration that inhibits the measured activity by half – in [1] was 700 µM; in data set [2] it was 740 µM.

On to `Nc1ccc(C(=O)NCC(=O)O)cc1` [AMINOHIPPURIC ACID], for which the figures for the IC50 in [1] and in data set [2] were 4500 µM and 1300 µM, respectively.

Consider `C[C@]12C[C@H](O)[C@H]3[C@@H](CCC4=CC(=O)CC[C@@]43C)[C@@H]1CC[C@@H]2C(=O)CO` [CORTICOSTERONE], for which the values for the IC50 in data set [1] and in data set [2] were 4 µM and 151 µM, respectively.

Consider `CC[n+]1c(CC2C=C(C)N=C(c3ccccc3)N2C)ccc2ccccc21` (stereo unspecified) [Cyanine-863], for which the figures for the IC50 in [1] and in data set [2] were 2.56 µM and 0.51 µM, respectively.

As to `CNCCCN1c2ccccc2CCc2ccccc21` [DESIPRAMINE], the IC50 in data set [1] turned out to be 10 µM.

For `N=C(N)N` [GUANIDINE], the 50% inhibitory concentration (IC50) is 171 µM in data set [1] and 4470 µM in data set [2].

On to `CC(C)C(c1ccccc1)C(O)CC[N+]1(C)CCCCC1` (stereo unspecified) [MEPIPERPHENIDOL BROMIDE], for which the IC50 stood at 474 µM in [1] and 7.1 µM in [2].

The molecule `COc1cc(C(O)CNC(C)C)ccc1O` (stereo unspecified) [METIPRENALINE] came in with an IC50 in data set [2] of 37 µM.

Take `CCCN(CCC)S(=O)(=O)c1ccc(C(=O)O)cc1` [PROBENECID]: the IC50 in data set [1] came to 1700 µM; in data set [2], 1640 µM.

Consider `CCN(CC)CCNC(=O)c1ccc(N)cc1` [PROCAINAMIDE], for which the IC50 in data set [1] turned out to be 445 µM.

`C=C[C@H]1C[N@@]2CC[C@H]1C[C@@H]2[C@@H](O)c1ccnc2ccc(OC)cc12` [QUINIDINE]: the IC50 in data set [1] turned out to be 14.6 µM.

With `C=C[C@H]1C[N@@]2CC[C@H]1C[C@H]2[C@H](O)c1ccnc2ccc(OC)cc12` [QUININE], the affinity in [3], expressed as Ki, was 55 µM.

As to `CCCC[N+](CCCC)(CCCC)CCCC` [TETRABUTHYLAMMONIUM], in [4], the affinity corresponds to a Ki of 12 µM.

For `C[N+](C)(C)C` [TETRAMETHYLAMMONIUM], in data set [1], the IC50 worked out at 630 µM.

On to `CCC[N+](CCC)(CCC)CCC` [TETRAPROPYLAMMONIUM], for which the IC50 in data set [1] was found to be 6.2 µM; in data set [2] it was 11.3 µM.

B1: Solute carrier family 22 member 2 (Rattus norvegicus) (protein)
chain: MSTVDDILEHIGEFHLFQKQTFFLLALLSGAFTPIYVGIVFLGFTPDHHCWSPGAAKLSQRCGWSQAEELNYTVPGLGPSDEASFLSQCMRYEVDWNQSTLDCVDPLSSLAADRNQLPLGPCEHGWVYNTPGSSIVTEFNLVCAHSWMLDLFQSVVNVGFFIGAMMIGYLADRFGRKFCLLVTILINAISGALMAISPNYAWMLVFRFLQGLVSKAGWLIGYILITEFVGLGYRRMVGICYQIAFTVGLLILAGVAYVIPNWRWLQFAVTLPNFCFLLYFWCIPESPRWLISQNKIVKAMKIIKHIAKKNGKSVPVSLQNLTPDEDAGKKLNPSFLDLVRTPQIRKHTLILMYNWFTSSVLYQGLIMHMGLAGDNIYLDFFYSALVEFPAAFIIILTIDRVGRRYPWAVSNMVAGAACLASVFIPDDLQWLKITIACLGRMGITMAYEMVCLVNAELYPTYIRNLGVLVCSSMCDIGGIITPFLVYRLTDIWMEFPLVVFAVVGLVAGALVLLLPETKGKALPETIEDAENMQRPRKKKEKRIYLQVKQADRPLS
As to B1, the Km (in general, the concentration of substrate that gives half-maximal velocity) in [5] was found to be 245 µM; in data set [6], 17 µM; in data set [7], 172 µM; in data set [8] it was 91 µM; in [9] it was 604 µM; in [10] it was 278 µM.

B2: Solute carrier family 22 member 1 (Rattus norvegicus) (protein)
chain: MPTVDDVLEQVGEFGWFQKQAFLLLCLISASLAPIYVGIVFLGFTPGHYCQNPGVAELSQRCGWSQAEELNYTVPGLGPSDEASFLSQCMRYEVDWNQSTLDCVDPLSSLVANRSQLPLGPCEHGWVYDTPGSSIVTEFNLVCGDAWKVDLFQSCVNLGFFLGSLVVGYIADRFGRKLCLLVTTLVTSVSGVLTAVAPDYTSMLLFRLLQGMVSKGSWVSGYTLITEFVGSGYRRTTAILYQMAFTVGLVGLAGVAYAIPDWRWLQLAVSLPTFLFLLYYWFVPESPRWLLSQKRTTRAVRIMEQIAQKNGKVPPADLKMLCLEEDASEKRSPSFADLFRTPNLRKHTVILMYLWFSCAVLYQGLIMHVGATGANLYLDFFYSSLVEFPAAFIILVTIDRIGRIYPIAASNLVTGAACLLMIFIPHELHWLNVTLACLGRMGATIVLQMVCLVNAELYPTFIRNLGMMVCSALCDLGGIFTPFMVFRLMEVWQALPLILFGVLGLTAGAMTLLLPETKGVALPETIEEAENLGRRKSKAKENTIYLQVQTGKSSST
In the case of B2, the figures for the Km in data set [7] and in data set [10] were 1660 µM and 300 µM, respectively.
